# Measurements as given in patent US12630501B2, “Anti-fibrotic compounds and use thereof” (HADASIT MEDICAL RESEARCH SERVICES AND DEVELOPMENT LTD., priority 2019, dated 2026).
# How the values were obtained:
# [1] = system: breast cancer cells and pancreatic cancer cells; conditions: cited from earlier work
# Ku70 = test: Ku70-IP and immunoblots of myofibroblasts isolated from lungs of BLM-treated mice given CMH; format: in vivo, mouse; conditions: CMH 30 μM OA day 6, sacrifice day 14
# Protocol: Oropharyngeal aspiration (OA) and induction of lung fibrosis in mice Oropharyngeal aspiration of BLM (OA-BLM) was performed as detailed in Golan-Gerstl et al., Am. J. Respir. Cell Mol. Biol. 36: 270-275, 2007. Lung fibrosis was assessed via semi-quantitative morphological index (Wallach-Dayan et al., PNAS USA 104: 20460-20465, 2007). Lung collagen was measured using a Sircol Collagen Assay kit (Biocolor, Belfast, Northern Ireland), and standard protocol of trichrome staining. Isolation of mouse lung myofibroblasts Myofibroblast isolation and culture was performed as described in Golan-Gerstl et al., Am. J. Respir. Cell Mol. Biol. 36: 270-275, 2007; and Wallach-Dayan et al., PNAS USA 104: 20460-20465, 2007.
# Immunoprecipitation and immunoblotting Standard protocols were performed as described in Golan-Gerstl et al., Am. J. Respir. Cell Mol. Biol. 47: 271-279, 2012.
# CMH (30 μM) or control vehicle 4% DMSO were administered into WT mice by a second OA on day 6 of OA-BLM (0.05 mU), or control-saline (FIG. 6A). Similar to SIRT1^y/y mice, BLM-treated mice and control saline-treated mice (FIG. 6B) that were exposed to CMH vs. vehicle alone, had low SIRT1 and FLIP expression in lung sections. Myofibroblasts isolated from lungs of BLM-treated mice had decreased Ku70 binding to SIRT1 from 1.2 to 0.6 (FIG. 6C), increased Ku70 acetylation from an OD of 0.1 to 0.91 (FIG. 6D), and decreased Ku70/FLIP complex from an OD of 2.43 to 1.55 (FIG. 6E). Compared to vehicle, CMH-treated mice reduced H&E and collagen-trichrome staining (FIG. 6F, upper and lower panels, respectively), SMI grade (average SMI from 2 to 1.1, FIG. 6G), and collagen in Sircol assay (from 200 μg to only 50 μg, FIG. 6H). Thus, In vivo inhibition of SIRT1 activity, FLIP expression, and lung fibrosis were detected in CMH-BLM-treated mice and attenuation of deacetylation activity on Ku70, a decrease in Ku70/FLIP complex, and FLIP expression levels were detected in myofibroblasts isolated from lungs of CMH-BLM-treated mice. […]
# HDAC7 = biological target: T1, HDAC7 (Homo sapiens, UniProt Q8WUI4); conditions: prostate cancer cells; cited from earlier work
# T1 sequence (Q8WUI4 1-952): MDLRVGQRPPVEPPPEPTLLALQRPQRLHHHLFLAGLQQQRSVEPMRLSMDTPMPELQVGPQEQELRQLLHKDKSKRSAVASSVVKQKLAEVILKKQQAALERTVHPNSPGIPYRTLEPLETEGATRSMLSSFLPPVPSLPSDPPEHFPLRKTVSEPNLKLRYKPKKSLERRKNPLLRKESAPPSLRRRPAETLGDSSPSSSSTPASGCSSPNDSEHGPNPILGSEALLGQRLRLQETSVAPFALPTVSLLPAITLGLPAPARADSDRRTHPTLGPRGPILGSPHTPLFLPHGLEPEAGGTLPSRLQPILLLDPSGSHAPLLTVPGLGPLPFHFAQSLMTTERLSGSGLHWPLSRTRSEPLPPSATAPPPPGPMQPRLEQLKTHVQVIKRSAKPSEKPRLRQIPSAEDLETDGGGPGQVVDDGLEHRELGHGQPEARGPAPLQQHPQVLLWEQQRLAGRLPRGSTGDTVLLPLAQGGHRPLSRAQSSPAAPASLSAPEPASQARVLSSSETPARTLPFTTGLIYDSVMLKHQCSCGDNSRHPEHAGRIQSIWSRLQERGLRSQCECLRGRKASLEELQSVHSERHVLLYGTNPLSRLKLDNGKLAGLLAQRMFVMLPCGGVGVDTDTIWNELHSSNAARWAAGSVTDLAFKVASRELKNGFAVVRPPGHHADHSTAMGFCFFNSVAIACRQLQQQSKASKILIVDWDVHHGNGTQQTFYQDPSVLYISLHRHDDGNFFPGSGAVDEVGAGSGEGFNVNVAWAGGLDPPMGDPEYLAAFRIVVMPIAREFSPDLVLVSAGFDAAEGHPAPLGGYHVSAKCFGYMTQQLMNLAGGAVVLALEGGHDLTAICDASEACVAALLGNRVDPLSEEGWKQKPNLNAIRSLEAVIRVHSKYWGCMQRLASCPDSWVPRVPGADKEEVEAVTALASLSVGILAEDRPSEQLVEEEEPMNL
smiles,measurement,setting,value
"Cc1cc(Cl)ccc1OCCCC(=O)NO [CMH, 4-(4-chloro-2-methylphenoxy)-N-hydroxybutanamide]",Apoptosis,[1],increase
same,FLIP expression,[1],downregulate
same,"Ku70 acetylation OD (Ku70-IP, pan-acetyl IB)",Ku70; from 0.1,0.91 OD
same,"Ku70 binding to SIRT1 (Ku70-IP, SIRT1 IB)",Ku70; from 1.2,0.6
same,"Ku70/FLIP complex OD (Ku70-IP, FLIP IB)",Ku70; from 2.43,1.55 OD
same,Inhibition of HDAC7,HDAC7,not inhibited
